# What was measured:
# Format in all cases: cell-based
# mGluR5 [1] = target: T1, mGluR5 (Homo sapiens, UniProt P41594); assay: FLIPR Ca2+ flux assay in human mGluR5 CHONFAT/mGLAST cells; conditions: Fluo-4, FLIPR384, normalized to glutamate (10 μM) control maximum; EC50 values only in figure
# T1 construct: expressed in transfected cells
# Procedure: Agonists were added after 10 seconds of baseline determination. Data were normalized to a glutamate (10 μM) control maximum. Concentration-response curves were generated from mean data of 5 experiments. Error bars are SEM.
# CHO cells expressing mGluR5 receptors (mGluR5 CHO cells) were plated in clear-bottomed, poly-D-lysine coated 384-well plates (Becton-Dickinson 35-6663 Franklin Lakes USA) in glutamate/glutamine-free medium using a Multidrop 384 cell dispenser (Thermo Labsystems, Franklin USA). The plated cells were grown overnight at 37° C. in the presence of 6% CO2. The following day, the cells were washed with 3×100 μl assay buffer (Hanks Balanced Salt Solution (Gibco 14025) containing 20 mM HEPES (Gibco 15630), 2.5 mM probenicid (Sigma P-8761), and 0.1% bovine serum albumin (Sigma) using an Embla cell washer (Skatron, Lier Norway). The cells were incubated with 1 μM Fluo-4AM (Molecular Probes) for 1 h at 37° C. and 6% CO2. The extracellular dye was removed by washing as described above. Ca^2+ flux was measured using FLIPR384, fluorometric imaging plate reader (Molecular Devices, Sunnyvale USA). For potency determination, the cells were pre-incubated with various concentrations of compound for 5 min and then stimulated for 3 min with either an EC20 or EC50 concentration of agonist (i.e. glutamate) for potentiation measurements or antagonist measurements, respectively.
# mGluR5 [2] = target: T1, mGluR5; assay: β-lactamase reporter gene assay in mGluR5CHONFAT co-expressing mGLAST
# Excerpt: (§1) Aurora transcription based reporter cell lines were used to develop reporter gene assays for the mGluRs. The cell line, CHONFAT-β-lactamase, reports signaling through Gq-coupled receptors via an increase in intracellular calcium. The β-lactamase gene is under the transcriptional control of the nuclear factor of activated T-cells (N-FAT) promoter (reporting increased intracellular calcium). A second cell line Gqi5CHONFAT was utilized for Gi coupled mGluRs. This cell line contains a promiscuous G-protein that promotes coupling to a Gq signal transduction cascade. […] The production of β-lactamase resulting from the downstream signaling events of receptor activation is detected by loading cells with a fluorescent dye, CCF2-AM, a substrate cleavable by the β-lactamase enzyme. In its cleaved state, the substrate will fluoresce blue (EM460) when stimulated with UV light (395 nm). Noncleaved, the intact dye fluoresces green (EM530) (Science 1998, 279:84-88). The ratio of blue to green cells (Em460/530) is determined as a measure of signal transduction, with cells that have transduced a signal being blue and those that have not green.
# Cells were plated at 80,000 cells per well in poly-D-lysine coated black clear bottom plates (Becton Dickinson) and grown in glutamate/glutamine free media (DMEM, -glutamine, 10% dialyzed fetal calf serum, 100 units/ml penicillin/streptomycin, 0.1 mM non-essential amino acids, 1 mM sodium pyruvate, 25 mM HEPES, 0.25 mg/mL zeocin, 10 μg/ml puromycin (Clontech 8052-2) and 1 mg/mL G418 for cell lines co-expressing mGluRs and mGLAST. All media was from GIBCO unless specified. Cells were grown overnight at 5% CO2, 37° C. The next day, media was aspirated and the cells were washed twice with serum-free DMEM and replaced with 100 μL of assay media (DMEM, glutamine free), 0.1% BSA, 25 mM HEPES. […] Plates were read 45-60 minutes later on a fluorescence plate reader (excitation 405±10 nm, emission 460±20 nm for blue; 530±15 nm. Wells containing dye and no cells were used to subtract background values.
# mGluR5 [3] = target: T1, mGluR5; assay: β-lactamase reporter gene assay in mGluR5CHONFAT cells without mGLAST co-expression; conditions: 1 μM quisqualate
# Excerpt: as §1, with “green. […]” for “green.”
# CHONFAT cells = assay: β-lactamase reporter gene assay in non-transfected CHONFAT cells; conditions: 200 nM thapsigargin; maximal fluorescence
# Excerpt: as §1, with “green. […]” for “green.”
# T1 sequence (P41594 21-1212): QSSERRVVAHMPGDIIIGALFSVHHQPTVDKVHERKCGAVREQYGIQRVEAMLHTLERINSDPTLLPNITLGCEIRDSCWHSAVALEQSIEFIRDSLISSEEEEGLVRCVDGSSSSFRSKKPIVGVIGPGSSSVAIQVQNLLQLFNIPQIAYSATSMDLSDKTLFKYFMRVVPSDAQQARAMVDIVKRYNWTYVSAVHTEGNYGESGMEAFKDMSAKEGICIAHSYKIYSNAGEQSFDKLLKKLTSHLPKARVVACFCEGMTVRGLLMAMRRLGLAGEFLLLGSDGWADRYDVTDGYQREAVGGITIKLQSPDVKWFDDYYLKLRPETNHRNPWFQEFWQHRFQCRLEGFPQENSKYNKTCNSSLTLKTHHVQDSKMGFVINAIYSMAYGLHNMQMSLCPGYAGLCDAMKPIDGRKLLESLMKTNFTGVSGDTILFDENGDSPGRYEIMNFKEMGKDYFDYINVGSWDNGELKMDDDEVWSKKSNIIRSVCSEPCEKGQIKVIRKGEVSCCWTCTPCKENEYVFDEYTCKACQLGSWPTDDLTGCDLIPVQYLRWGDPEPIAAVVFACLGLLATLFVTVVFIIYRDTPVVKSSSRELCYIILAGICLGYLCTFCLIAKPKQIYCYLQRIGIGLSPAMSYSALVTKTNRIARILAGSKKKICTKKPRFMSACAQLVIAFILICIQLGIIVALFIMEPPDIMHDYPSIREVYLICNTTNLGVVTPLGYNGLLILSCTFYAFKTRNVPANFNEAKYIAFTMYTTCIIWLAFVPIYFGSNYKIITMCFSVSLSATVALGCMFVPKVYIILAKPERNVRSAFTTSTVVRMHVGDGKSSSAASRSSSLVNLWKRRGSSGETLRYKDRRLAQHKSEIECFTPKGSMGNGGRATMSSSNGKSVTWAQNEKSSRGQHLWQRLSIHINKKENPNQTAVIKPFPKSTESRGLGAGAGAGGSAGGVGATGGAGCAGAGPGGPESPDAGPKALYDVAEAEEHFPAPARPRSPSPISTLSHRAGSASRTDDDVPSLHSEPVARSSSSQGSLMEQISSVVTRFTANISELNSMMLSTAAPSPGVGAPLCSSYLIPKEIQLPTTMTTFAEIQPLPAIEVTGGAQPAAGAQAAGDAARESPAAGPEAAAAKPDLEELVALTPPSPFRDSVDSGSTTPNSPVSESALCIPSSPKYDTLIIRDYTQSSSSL
smiles,measurement,setting,value
N[C@@H](CCC(=O)O)C(=O)O [glutamate],activation of Ca^2+ transients,mGluR5 [1],activate Ca^2+ transients
N[C@@H](Cn1oc(=O)[nH]c1=O)C(=O)O [quisqualate],fluorescence ratio (EM460/530),"mGluR5 [2]; 10 μM quisqualate, with mGLAST co-expression",1.35
same,EC50,mGluR5 [2]; dose response in the absence of positive allosteric modulator,44 nM
same,EC50,mGluR5 [2]; dose response in the presence of 10 μM positive allosteric modulator,15 nM
same,fluorescence ratio (EM460/530),mGluR5 [3],0.85
same,activation of Ca^2+ transients,mGluR5 [1],activate Ca^2+ transients
C/C=C(/C)C(=O)O[C@H]1C(C)=C2[C@H]([C@@H]1OC(=O)CCCCCCC)[C@@](C)(OC(C)=O)C[C@H](OC(=O)CCC)[C@@]1(O)[C@H]2OC(=O)[C@@]1(C)O [thapsigargin],fluorescence ratio (EM460/530),CHONFAT cells,1.0
"NC(C(=O)O)c1cc(O)cc(O)c1 (centres unmarked) [3,5-DHPG]",activation of Ca^2+ transients,mGluR5 [1],activate Ca^2+ transients

# From US20060275835A1, “Methods for identifying cell surface receptor protein modulators” (priority 2003, published 2006)
